Measured values as given in paper PMC8348686, “The Pharmacological Profile of Second Generation Pyrovalerone Cathinones and Related Cathinone Derivative” (International Journal of Molecular Sciences, 2021).
“Also recorded” adds a separate entry of the source. Read-outs that look alike come from different tables or passages of the source.

Legend:
hSERT [1] = molecular target: T1, hSERT (Homo sapiens, UniProt P31645); assay: Transporter-mediated monoamine efflux, [3H]-5-HT preloaded HEK293 cells; format: cell-based; set-up: expressed in transfected cells; host or cells: HEK293; settings: 100 μM of drug, 15 min, HEK293 hSERT preloaded with [3H]-5-HT; data for some pyrovalerones adapted from [13]
Protocol: (§1) Monoamine efflux was assessed using human embryonic kidney 293 (HEK293) cells (Invitrogen, Zug, Switzerland) stably transfected with the human norepinephrine (hNET), dopamine (hDAT), or serotonin (hSERT) uptake transporters. In summary, the cells were seeded in poly-D-lysine coated XF24 cell culture microplates (Seahorse Biosciences, North Billerica, MA, USA) and cultured overnight at a concentration of 100,000 cells per well.
(§2) The cells were then exposed to Krebs–HEPES release buffer (85 μL/well) comprised of 130 mM NaCl, 1.3 mM KCl, 2.2 mM CaCl2, 1.2 mM MgSO4, 1.2 mM KH2PO4, 10 mM HEPES, and 10 mM D-glucose at a pH of 7.5, which also contained 10 nM radiolabelled neurotransmitter ([^3H]-5-HT for SERT, [^3H]-DA for DAT or [^3H]-NE for NET), 1 μM unlabelled neurotransmitter (DA or NE, only), 10 μM pargyline, and 0.2 mg/mL of ascorbic acid. This enabled the loading of the cells with their respective neurotransmitters via the uptake transporters. Afterwards, the release buffer was replaced by fresh buffer to wash the cells twice and the cells were then incubated for 15 min (DAT and SERT) or 45 min (NET) to 100 μM of test drugs dissolved in 1 mL of Krebs–HEPES buffer while shaking at 300 rpm and 37 °C. Termination of the release reaction occurred by removing the buffer from the cells and washing them with ice-cold buffer. Next, 50 μL of lysis buffer was added to the cells for 1 h in order to lyse the cells. Thereafter, 40 μL of the lysed cell mixture was transferred into scintillation vials (Perkin–Elmer, Schwerzenbach, Switzerland) containing 3 mL of scintillation fluid (Ultimagold, Perkin–Elmer, Schwerzenbach, Switzerland) and measured using liquid scintillation (as previously described in Section 2.2).
(§3) To quantify the “pseudo efflux” caused by the non-transporter mediated monoamine release and successive reuptake inhibition, each monoamine efflux experiment included a control where the cells were exposed to each respective transporter blocker (nisoxetine for NET, mazindol for DAT, and citalopram for SERT). The radioactivity inside the cells without any drug was set as 100%. The nonspecific release was subtracted from the total observed release at 100 μM of each examined drug to calculate the specific transporter mediated release. One single concentration of the test drugs was used (100 μM) and release exposure durations were set based on previously evaluated kinetics of the release-over-time curves.
(§4) An ANOVA followed by a Holm–Sidak test was conducted to compare each drug’s specific transporter-mediated efflux based on at least three independent experiments to the control condition.

hNET [2] = molecular target: T2, hNET (Homo sapiens, UniProt P23975); assay: Transporter-mediated monoamine efflux, [3H]-NE preloaded HEK293 cells; format: cell-based; set-up: expressed in transfected cells; host or cells: HEK293; settings: 100 μM of drug, 45 min, HEK293 hNET preloaded with [3H]-NE; data for some pyrovalerones adapted from [13]
Protocol: as §1, §2, §3, §4

hDAT = hDAT (Homo sapiens, UniProt Q01959); assay: Transporter-mediated monoamine efflux, [3H]-DA preloaded HEK293 cells; format: cell-based; set-up: expressed in transfected cells; host or cells: HEK293; settings: 100 μM of drug, 15 min, HEK293 hDAT preloaded with [3H]-DA; data for some pyrovalerones adapted from [13]
Protocol: as §1, §2, §3, §4

hNET [3] = molecular target: T2, hNET; settings: read-out: hNET Receptor Binding Ki ± SD, N-Methyl-[3H]-nisoxetine, cited from earlier work
adrenergic α1A receptor = molecular target: T3, adrenergic α1A receptor (Homo sapiens, UniProt P35348); settings: read-out: α1A Receptor Binding Ki ± SD, [3H]-Prazosin, cited from earlier work
T3 sequence (P35348 1-466): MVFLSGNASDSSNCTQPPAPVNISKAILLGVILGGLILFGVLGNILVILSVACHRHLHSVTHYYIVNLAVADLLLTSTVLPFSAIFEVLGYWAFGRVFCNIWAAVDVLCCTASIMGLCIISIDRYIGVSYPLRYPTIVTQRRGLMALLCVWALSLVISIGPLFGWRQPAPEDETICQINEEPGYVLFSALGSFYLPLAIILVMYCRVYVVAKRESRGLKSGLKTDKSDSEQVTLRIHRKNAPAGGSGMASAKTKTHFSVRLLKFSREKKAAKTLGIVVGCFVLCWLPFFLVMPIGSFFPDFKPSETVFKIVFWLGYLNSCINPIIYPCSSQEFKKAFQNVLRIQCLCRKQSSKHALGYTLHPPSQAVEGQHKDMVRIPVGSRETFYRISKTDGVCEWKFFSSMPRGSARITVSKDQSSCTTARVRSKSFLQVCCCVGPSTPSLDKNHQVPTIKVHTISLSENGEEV

hSERT [4] = molecular target: T1, hSERT; settings: read-out: hSERT Receptor Binding Ki ± SD, [3H]-Citalopram, cited from earlier work
adrenergic α2A receptor = molecular target: T4, adrenergic α2A receptor (Homo sapiens, UniProt P08913); settings: [3H]-Rauwolscine, cited from earlier work; for Ki: read-out: α2A Receptor Binding Ki ± SD
T4 sequence (P08913 1-465): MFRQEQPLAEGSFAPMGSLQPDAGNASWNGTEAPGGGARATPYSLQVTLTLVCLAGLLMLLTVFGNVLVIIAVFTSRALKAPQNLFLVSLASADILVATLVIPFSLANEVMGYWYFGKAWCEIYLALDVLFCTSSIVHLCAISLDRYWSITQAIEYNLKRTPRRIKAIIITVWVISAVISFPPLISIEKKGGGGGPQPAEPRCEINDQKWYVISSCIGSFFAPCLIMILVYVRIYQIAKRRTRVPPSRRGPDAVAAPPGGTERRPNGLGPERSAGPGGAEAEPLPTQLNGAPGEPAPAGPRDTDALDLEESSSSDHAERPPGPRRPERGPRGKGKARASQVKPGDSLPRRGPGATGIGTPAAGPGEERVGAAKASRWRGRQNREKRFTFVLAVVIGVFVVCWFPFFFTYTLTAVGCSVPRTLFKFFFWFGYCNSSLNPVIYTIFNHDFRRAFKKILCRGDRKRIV

Rat TAAR1 = settings: [3H]-RO5166017, cited from earlier work; for Ki: read-out: Rat TAAR1 Receptor Binding Ki ± SD
Human TAAR1 = system: Human TAAR1; set-up: method as in Simmler et al. (2016); settings: ref Simmler et al. (2016); read-out: Human TAAR1 Activation Potency EC50 ± SD; cited from earlier work
[5] = ref Luethi, Kolaczynska et al. (2019)

T2 sequence (P23975 whole entry): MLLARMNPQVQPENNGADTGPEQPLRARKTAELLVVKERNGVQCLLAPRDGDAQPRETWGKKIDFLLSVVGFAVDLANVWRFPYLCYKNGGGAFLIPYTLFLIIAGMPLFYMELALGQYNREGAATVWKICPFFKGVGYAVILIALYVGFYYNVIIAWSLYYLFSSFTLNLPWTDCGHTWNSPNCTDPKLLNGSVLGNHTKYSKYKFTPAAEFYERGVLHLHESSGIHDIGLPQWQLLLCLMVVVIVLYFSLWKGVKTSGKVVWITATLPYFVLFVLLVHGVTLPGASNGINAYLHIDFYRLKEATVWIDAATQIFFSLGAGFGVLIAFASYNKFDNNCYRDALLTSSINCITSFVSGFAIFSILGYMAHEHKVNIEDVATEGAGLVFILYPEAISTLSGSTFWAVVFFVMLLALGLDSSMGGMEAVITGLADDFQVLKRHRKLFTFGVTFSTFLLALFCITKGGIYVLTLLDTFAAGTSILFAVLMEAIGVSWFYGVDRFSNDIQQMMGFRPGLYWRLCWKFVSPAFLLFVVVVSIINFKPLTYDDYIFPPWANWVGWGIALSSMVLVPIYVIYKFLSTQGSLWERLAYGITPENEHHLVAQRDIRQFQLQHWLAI
Sequence of hDAT (Q01959 whole entry): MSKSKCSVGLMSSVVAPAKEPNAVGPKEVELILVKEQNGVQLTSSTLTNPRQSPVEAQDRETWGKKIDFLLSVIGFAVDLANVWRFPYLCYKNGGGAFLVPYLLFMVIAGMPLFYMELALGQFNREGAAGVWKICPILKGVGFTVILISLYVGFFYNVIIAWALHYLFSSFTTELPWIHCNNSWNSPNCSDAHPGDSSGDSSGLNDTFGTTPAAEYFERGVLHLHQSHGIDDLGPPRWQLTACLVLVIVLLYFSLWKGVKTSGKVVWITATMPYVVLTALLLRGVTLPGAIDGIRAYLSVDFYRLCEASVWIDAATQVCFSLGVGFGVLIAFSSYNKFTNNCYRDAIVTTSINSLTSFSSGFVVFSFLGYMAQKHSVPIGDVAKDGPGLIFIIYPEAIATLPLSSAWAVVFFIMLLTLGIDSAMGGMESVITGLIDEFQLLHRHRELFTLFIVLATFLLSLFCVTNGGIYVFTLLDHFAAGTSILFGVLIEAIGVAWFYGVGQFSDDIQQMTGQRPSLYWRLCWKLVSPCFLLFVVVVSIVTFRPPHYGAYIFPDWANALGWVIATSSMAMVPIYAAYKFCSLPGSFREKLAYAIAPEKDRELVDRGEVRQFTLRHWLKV
T1 sequence (P31645 whole entry): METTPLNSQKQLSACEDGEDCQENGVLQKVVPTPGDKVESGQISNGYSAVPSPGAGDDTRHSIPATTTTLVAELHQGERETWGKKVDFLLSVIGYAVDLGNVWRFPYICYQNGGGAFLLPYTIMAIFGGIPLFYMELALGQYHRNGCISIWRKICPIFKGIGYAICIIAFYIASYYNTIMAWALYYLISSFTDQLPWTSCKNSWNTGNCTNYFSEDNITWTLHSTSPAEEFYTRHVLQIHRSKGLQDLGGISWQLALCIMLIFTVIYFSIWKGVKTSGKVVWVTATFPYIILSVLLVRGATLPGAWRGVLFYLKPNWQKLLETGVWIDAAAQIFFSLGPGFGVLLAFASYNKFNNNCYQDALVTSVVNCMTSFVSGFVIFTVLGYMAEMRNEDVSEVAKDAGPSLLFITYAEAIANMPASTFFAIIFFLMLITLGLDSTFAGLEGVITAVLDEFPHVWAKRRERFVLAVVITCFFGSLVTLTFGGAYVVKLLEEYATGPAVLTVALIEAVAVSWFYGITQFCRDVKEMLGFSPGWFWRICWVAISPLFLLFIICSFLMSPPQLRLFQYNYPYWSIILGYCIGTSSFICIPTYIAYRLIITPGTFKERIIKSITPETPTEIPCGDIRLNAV

## CCCCC(C(=O)c1ccc(C)cc1)N1CCCC1 (stereo not drawn) [MPHP, 4-methyl-α-pyrrolidinohexanophenone]
hSERT [1]
  Transporter-mediated monoamine efflux (5-HT) vs citalopram: no monoamine efflux was observed
hNET [2]
  Transporter-mediated monoamine efflux (NE) vs nisoxetine: no monoamine efflux was observed
hDAT
  Transporter-mediated monoamine efflux (DA) vs mazindol: no monoamine efflux was observed

## CCC(C(=O)c1ccc(F)cc1)N1CCCC1 (stereo not drawn) [4F-PBP, 4-fluoro-α-pyrrolidinobutiophenone]
hSERT [1]
  Transporter-mediated monoamine efflux (5-HT) vs citalopram: did not induce any monoamine efflux
hNET [2]
  Transporter-mediated monoamine efflux (NE) vs nisoxetine: did not induce any monoamine efflux
hDAT
  Transporter-mediated monoamine efflux (DA) vs mazindol: did not induce any monoamine efflux

## CC(C(=O)c1ccccc1)N1CCCC1 (stereo not drawn) [α-PPP, α-pyrrolidinopropiophenone]
hSERT [1]
  Transporter-mediated monoamine efflux (5-HT) vs citalopram: did not induce any monoamine efflux
hNET [2]
  Transporter-mediated monoamine efflux (NE) vs nisoxetine: did not induce any monoamine efflux
hDAT
  Transporter-mediated monoamine efflux (DA) vs mazindol: did not induce any monoamine efflux

## CCCCC(C(=O)c1ccccc1)N1CCCC1 (stereo not drawn) [α-PHP, α-pyrrolidinohexanophenone]
hSERT [1]
  Transporter-mediated monoamine efflux (5-HT) vs citalopram: did not induce any monoamine efflux
hNET [2]
  Transporter-mediated monoamine efflux (NE) vs nisoxetine: did not induce any monoamine efflux
hDAT
  Transporter-mediated monoamine efflux (DA) vs mazindol: did not induce any monoamine efflux

## CCCCC(NCC)C(=O)c1ccccc1 (stereo not shown) [NEH, N-ethylamine-hexanophenone]
hSERT [1]
  Transporter-mediated monoamine efflux (5-HT) vs citalopram: did not produce any monoamine efflux; also recorded: did not induce any monoamine efflux
hNET [2]
  Transporter-mediated monoamine efflux (NE) vs nisoxetine: did not produce any monoamine efflux; also recorded: did not induce any monoamine efflux
hDAT
  Transporter-mediated monoamine efflux (DA) vs mazindol: did not produce any monoamine efflux; also recorded: did not induce any monoamine efflux

## CCCC(C(=O)c1ccccc1)N1CCCC1 (stereo not drawn) [α-PVP, α-pyrrolidinopentiophenone]
hSERT [1]
  Transporter-mediated monoamine efflux (5-HT) vs citalopram: did not induce any monoamine efflux
hNET [3]; ref Rickli et al. (2015)
  Ki: 0.06 ± 0.02 µM
Adrenergic α1A receptor; ref Rickli et al. (2015)
  Ki: > 15 µM
hSERT [4]; ref Rickli et al. (2015)
  Ki: > 30 µM
hNET [2]
  Transporter-mediated monoamine efflux (NE) vs nisoxetine: did not induce any monoamine efflux
Adrenergic α2A receptor; ref Rickli et al. (2015)
  Ki: > 20 µM
hDAT
  Transporter-mediated monoamine efflux (DA) vs mazindol: did not induce any monoamine efflux
Rat TAAR1; ref Rickli et al. (2015)
  Rat TAAR1 Receptor Binding Ki ± SD: bound the rat TAAR1
  Ki: 16 ± 6.4 µM

## CNC(C)Cc1ccc2c(c1)OCO2 (stereo not shown) [MDMA, 3,4-methylenedioxymethamphetamine, reference compound]
hSERT [1]
  Transporter-mediated monoamine efflux (5-HT) vs citalopram: causes significant release at the transporters
hNET [3]; [5]
  Ki: > 8.7 µM
Adrenergic α1A receptor; [5]
  Ki: 6.9 ± 1.2 µM
hSERT [4]; [5]
  Ki: > 7.5 µM
hNET [2]
  Transporter-mediated monoamine efflux (NE) vs nisoxetine: causes significant release at the transporters
Adrenergic α2A receptor; [5]
  Ki: 4.6 ± 1.1 µM
hDAT
  Transporter-mediated monoamine efflux (DA) vs mazindol: causes significant release at the transporters
Human TAAR1
  EC50: 35 ± 21 µM
Rat TAAR1; [5]
  Ki: 0.25 ± 0.01 µM

## CCC(C(=O)c1ccc2c(c1)OCO2)N1CCCC1 (stereo not drawn) [MDPBP, 3,4-methylenedioxy-α-pyrrolidinobutiophenone]
hNET [3]; ref Rickli et al. (2015)
  Ki: 1.1 ± 0.1 µM
Adrenergic α1A receptor; ref Rickli et al. (2015)
  Ki: > 4.9 µM
hSERT [4]; ref Rickli et al. (2015)
  Ki: 4.1 ± 1.2 µM
Adrenergic α2A receptor; ref Rickli et al. (2015)
  α2A Receptor Binding Ki ± SD: bound the receptor in the low micromolar range
  Ki: 9.4 ± 1.6 µM
Rat TAAR1; ref Rickli et al. (2015)
  Ki: > 20 µM

## CC(C(=O)c1ccc2c(c1)OCO2)N1CCCC1 (stereo not drawn) [MDPPP, 3,4-methylenedioxy-α-pyrrolidinopropiophenone]
hNET [3]; ref Rickli et al. (2015)
  Ki: 3.5 ± 1 µM
Adrenergic α1A receptor; ref Rickli et al. (2015)
  Ki: > 15 µM
hSERT [4]; ref Rickli et al. (2015)
  Ki: 12 ± 1 µM
Adrenergic α2A receptor; ref Rickli et al. (2015)
  α2A Receptor Binding Ki ± SD: bound the receptor in the low micromolar range
  Ki: 14 ± 0.9 µM
Rat TAAR1; ref Rickli et al. (2015)
  Rat TAAR1 Receptor Binding Ki ± SD: bound the rat TAAR1
  Ki: 16 ± 6.7 µM

## CCCC(C(=O)c1ccc(C)cc1)N1CCCC1 (stereo not shown) [Pyrovalerone, pyrovalerone]
hNET [3]; ref Simmler et al. (2013)
  Ki: 0.06 ± 0.01 µM
Adrenergic α1A receptor; ref Simmler et al. (2013)
  Ki: > 6 µM
hSERT [4]; ref Simmler et al. (2013)
  Ki: 5 ± 0.3 µM
Adrenergic α2A receptor; ref Simmler et al. (2013)
  Ki: > 20 µM
Rat TAAR1; ref Simmler et al. (2013)
  Ki: > 12.5 µM

## Cc1ccc(C(=O)C(C)N2CCCC2)cc1 (stereo not drawn) [4-MePPP, 4-methyl-α-pyrrolidinopropiophenone]
hSERT [1]
  Transporter-mediated monoamine efflux (5-HT) vs citalopram: no monoamine efflux was observed
hNET [2]
  Transporter-mediated monoamine efflux (NE) vs nisoxetine: no monoamine efflux was observed
hDAT
  Transporter-mediated monoamine efflux (DA) vs mazindol: no monoamine efflux was observed

## CCCC(C(=O)c1ccc2c(c1)OCO2)N1CCCC1 (stereo not shown) [MDPV, 3,4-methylenedioxypyrovalerone]
hNET [3]; ref Simmler et al. (2013)
  Ki: 0.08 ± 0.02 µM
Adrenergic α1A receptor; ref Simmler et al. (2013)
  Ki: > 6 µM
hSERT [4]; ref Simmler et al. (2013)
  Ki: 2.9 ± 0.1 µM
Adrenergic α2A receptor; ref Simmler et al. (2013)
  Ki: > 20 µM
Human TAAR1
  EC50: > 30 µM
Rat TAAR1; ref Simmler et al. (2013)
  Rat TAAR1 Receptor Binding Ki ± SD: bound the rat TAAR1
  Ki: 7.2 ± 1.1 µM
